Results: patent US20190083420A1, “METHODS OF USING (2R, 6R)-HYDROXYN[…] (2S, 6S)-HYDROXYN[…] THE TREATMENT OF DEPRESSION, ANXIETY, ANHEDONIA, FATIGUE, SUICIDAL IDEATION, AND POST TRAUMATIC STRESS DISORDERS” (The Uinited States of America, as represented by the …, priority 2016, published 2019)
“Also recorded” adds a separate entry of the source.

Legend:
mice [1] = assay: Pre-pulse inhibition of acoustic startle; format: in vivo
Description: Mice were individually tested in acoustic startle boxes (SR-LAB, San Diego Instruments). Following drug administration, mice were placed in the startle chamber for a 30-min habituation period. The experiment started with a further 5-min adaptation period during which the mice were exposed to a constant background noise (67 dB), followed by five initial startle stimuli (120 dB, 40 msec duration each). Subsequently, animals were exposed to five different trial types: pulse alone trials (120 dB, 40 msec duration), three pre-pulse trials of 76, 81 and 86 dB of white noise bursts (20 msec duration) preceding a 120 dB pulse by 100 msec, and background (67 dB) no-stimuli trials. Each of these trials was randomly presented five times. Ketamine's dose selection (30 mg/kg) was based on a dose-response study we performed in a previous study. The percentage pre-pulse inhibition (% PPI) was calculated using the following formula: [(magnitude on pulse alone trial—magnitude on pre-pulse+pulse trial)/magnitude on pulse alone trial]×100.

mice [2] = assay: Quantitative EEG, cortical oscillation power; format: in vivo; settings: for cortical gamma power: acute; for cortical gamma power / cortical alpha, beta, delta and theta oscillations: after i.p. 10 mg/kg
Protocol: EEG experiments were performed according to Raver et al., (Neuropsychopharmacology, 38, 2338-2347 (2013)) with minor modifications. Mice were anesthetized with isoflurane and kept under anesthesia throughout the surgery. An F20-EET radio-telemetric transmitter (Data Sciences International, Minneapolis, Minn.) was implanted subcutaneously and its leads implanted over the dura above the frontal cortex (1.7 mm anterior to bregma) and the cerebellum (6.4 mm posterior to bregma). Animals recovered from surgery for 7 days before recordings.
Mice were singly housed and acclimated to the behavioral room for 24 hours prior to EEG recordings. EEGs were recorded using the Dataquest A.R.T. acquisition system (Data Sciences International) with frontal EEG recordings referenced to the cerebellum. Baseline EEG (10 min) recordings were followed by an i.p. injection of saline, ketamine (10 mg/kg) or (2R,6R)-HNK (10 mg/kg) and 40 min of post-injection recordings.
ECoGs were analyzed using custom-written MATLAB scripts (Version 2012a, Mathworks, Mass.) and the mtspecgramc routine in the Chronux Toolbox (http://chronux.org; Mitra and Bokil, 2008). Oscillation power in each bandwidth (δ=1-3 Hz; θ=4-7 Hz; α=8-12 Hz; β=13-29 Hz; γ=30-80 Hz) was computed in 10 min bins from spectrograms for each animal.

[3] = Tissue distribution of ketamine and metabolites (plasma and brain levels); settings: brain
Protocol: Mice were euthanized by a 30-sec exposure to 3% isoflurane and decapitated at 10, 30, 60, 240 or 480 minutes following drug administration. Trunk blood was collected in EDTA-containing tubes and centrifuged at 8000 rpm for 6 min (4° C.). Plasma was collected and stored at −80° C. until analysis. Whole brains were simultaneously collected, rinsed with phosphate-buffered saline, immediately frozen in dry ice and stored at −80° C. until analysis.
The concentrations of ketamine and its metabolites in plasma and brain tissue were determined by achiral liquid chromatography-tandem mass spectrometry. For plasma samples, the calibration standards for (R,S)-ketamine, (R,S)-norketamine, (2R,6R;2S,6S)-HNK and (R,S)-DHNK ranged from 10,000 ng/ml to 19 ng/ml. The quantification of (R,S)-ketamine, (R,S)-norketamine, (R,S)-DHNK, and the HNK stereoisomers was accomplished by calculating area ratios using D4-ketamine (10 μl of 10 μg/ml solution) as the internal standard. Whole brains were suspended in 990 μl of water:methanol (3:2, v/v), D4-ketamine (10 μl of 10 μg/ml) added and the resulting mixture homogenized on ice with a polytron homogenizer and centrifuged at 21,000×g for 30 min. The supernatant was collected and processed using 1 ml Oasis HLB solid phase extraction cartridges (Waters Corp., Waltham, Mass.). The cartridges were preconditioned with 1 ml of methanol, followed by 1 ml of water and then 1 ml ammonium acetate [10 mM, pH 9.5]. The supernatants were added to the cartridges, followed by 1 ml of water and the compounds were eluted with 1 ml of methanol. The eluent was transferred to an autosampler vial for analysis. QC standards for the analysis of (R,S)-ketamine, (R,S)-norketamine, (R,S)-DHNK and (2R,6R;2S,6S)-HNK ranged from 10,000 ng/ml to 19 ng/ml, and quantification was accomplished using D4-(R,S)-ketamine as the internal standard. QC standards were prepared daily by adding 10 μl of the appropriate standard solution and 10 μl of internal standard solution (100 ng/ml) to methanol.

mice [4] = assay: Open field test (locomotor activity); format: in vivo; settings: 1 hour after i.p. drug
Protocol: Mice were placed into individual open-field arenas (50 cm length×50 cm width×38 cm height; San Diego Instruments, San Diego, Calif., USA) for a 60-min habituation period. Mice were then injected with the respective drug and assessed for locomotor activity for another 60 min. Distance travelled was analyzed using TopScan v2.0 (CleverSys, Inc, Reston, Va., USA).

male CD-1 mice = assay: Forced-swim test (FST); format: in vivo; settings: for antidepressant effect in the FST (immobility time): i.p.
Description: Male CD-1 mice (8-10 weeks old, Charles River Laboratories, Mass., USA) were housed in groups of four-five per cage with a constant 12-hour light/dark cycle (lights on/off at 07:00/19:00). Food and water were available ad libitum. Mice acclimatized to the new environment for seven days prior to the start of the experiments. For the whole-cell NMDA current electrophysiological recordings, male Sprague-Dawley rats (housed three per cage; Charles River, Wilmington, Mass.) were used. EPSC recording were done from rats at postnatal day 24-25. All experimental procedures were approved by the University of Maryland, Baltimore Animal Care and Use Committee and were conducted in full accordance with the National Institutes of Health Guide for the Care and Use of Laboratory Animals.
Mice were tested in the FST 1 hour and/or 24 hours post-injection. During the FST, mice were subjected to a 6-min swim session in clear Plexiglass cylinders (30 cm height×20 cm diameter) filled with 15 cm of water (23±1° C.). The FST was performed in normal light conditions (800 Lux). Sessions were recorded using a digital video-camera. Immobility time, defined as passive floating with no additional activity other than that necessary to keep the animal's head above water, was scored for the last 4 min of the 6-min test by a trained observer blind to the treatment.
All drugs were dissolved in 0.9% saline, and administered intraperitoneally (i.p.) in a volume of 7.5 ml/kg of body mass. Corticosterone (4-pregnen-11β, 21-diol-3, 20-dione 21-hemisuccinate; Steraloids, Newport, R.I., USA) was dissolved in tap water. For the electrophysiology recordings, test drugs were diluted in artificial cerebrospinal fluid (AC SF).

[5] = 1- and 24-hours post-injection, times not separated
[6] = 24 hours post-injection (sustained)

**Q.** Which “pre-pulse inhibition (sensorimotor gating)” value (mice [1]; (2R,6R)-HNK up to 375 mg/kg) does the source give for N[C@@]1(c2ccccc2Cl)CCC[C@@H](O)C1=O [(2R,6R)-HNK, (2R,6R)-2-amino-2-(2-chlorophenyl)-6-hydroxycyclohexanone] here?
**A.** did not induce 4e, pre-pulse inhibition deficits; also recorded: did not affect sensorimotor gating; also recorded: did not affect pre-pulse inhibition

**Q.** And the cortical gamma power (mice [2]; 10 mg/kg)?
**A.** acutely increases cortical gamma power

**Q.** And the “cortical alpha, beta, delta and theta oscillations” value (mice [2]; 10 mg/kg)?
**A.** without altering alpha, beta, delta or theta oscillations; also recorded: Neither (R,S)-KET, nor (2R,6R)-HNK altered

**Q.** And the “brain hydroxynorketamine levels after administration of (2S,6S)-HNK versus (2R,6R)-HNK” value [3]?
**A.** do not result from higher brain levels

**Q.** What about the “locomotor activity in the open-field test” value (“locomotor activity” below) (mice [4]) of the same compound?
**A.** did not induce any significant change in locomotion; also recorded: did not induce any stimulant-like hyperlocomotion

**Q.** What about the “antidepressant effect in the FST (immobility time)” value (“antidepressant effect in the FST” below) (male CD-1 mice; [5]) of the same compound?
**A.** greater potency and longer-lasting antidepressant-like effects; also recorded: dose-dependent antidepressant-like effects; also recorded: dose-dependent antidepressant action

**Q.** And the “antidepressant effect in the FST” value (male CD-1 mice; [6])?
**A.** more potent antidepressant effects

**Q.** With CNC1(c2ccccc2Cl)CCCCC1=O (racemic) [ketamine, (R,S)-ketamine, reference compound] as the compound, how does the “startle amplitude in the pre-pulse inhibition task” value (mice [1]; mouse, in vivo) read?
**A.** not affected

**Q.** What about the cortical gamma power (mice [2]; 10 mg/kg) of the same compound?
**A.** acutely increases cortical gamma power

**Q.** And the “cortical alpha, beta, delta and theta oscillations” value (mice [2])?
**A.** Neither (R,S)-KET, nor (2R,6R)-HNK altered

**Q.** And the “locomotor home-cage activity during EEG recording” value (mice [2]; mouse, in vivo)?
**A.** increased locomotor home-cage activity

**Q.** What about the “brain levels following ketamine administration, female mice compared to males” value [3] of the same compound?
**A.** equivalent levels

**Q.** What about the “locomotor activity” value (mice [4]) of the same compound?
**A.** not associated with sex differences in ketamine-induced hyperlocomotion

**Q.** What about the “locomotor activity” value (mice [4]; listed as (R,S)-KET) of the same compound?
**A.** induced hyper-locomotor responses equally in both male and female mice

**Q.** What about the “locomotor activity” value (mice [4]; listed as (R,S)-ketamine) of the same compound?
**A.** equally potent in inducing a hyper-locomotor response

**Q.** And the “antidepressant effect in the FST” value (male CD-1 mice; [5])?
**A.** acute and long-lasting dose-dependent antidepressant effects

**Q.** What about the “antidepressant effect in the FST” value (male CD-1 mice; 1 hour post-injection (acute)) of the same compound?
**A.** antidepressant responses of both ketamine and MK-801 observed acutely

**Q.** And the “antidepressant effect in the FST” value (male CD-1 mice; [6])?
**A.** showed sustained effects following 24 hours

**Q.** What about the “antidepressant potency in the FST, female versus male mice” value (male CD-1 mice; female mice compared to males) of the same compound?
**A.** greater antidepressant potency of ketamine in female mice
